Earlier results in patent publication US20250255800A1, “DETERGENT COMPOSITIONS FOR WASHING URUSHIOL AND METHODS OF TREATING URUSHIOL INDUCED CONTACT DERMATITIS” (THE WILLIAM M. YARBROUGH FOUNDATION, priority 2020, published 2025).

Key:
[1] = test system: aquatic organisms; settings: EPA statement / GHS Hazard Statement H411
[2] = in vitro and in vivo assays

Substance | toxicity to aquatic life [1] | estrogenic properties [2]
nonoxynol 9 [nonoxynol-9] | toxic to aquatic life with long lasting effects | 
nonylphenol [nonylphenol (NP)] | extremely toxic to aquatic organisms | exhibit estrogenic properties
